From US10398723B1, “Hyaluronan-containing composition and use thereof for mitigation and/or prevention of inflammation and/or pain” (Viscos, LLC, priority 2015, dated 2019)

System: whole blood culture
Experiment: inflammatory cell activation (CD69, CD25 expression) in whole blood culture
Assay type: cell-based
Details: samples from human subjects; 0.006 mg/mL, 0.05 g/mL or 0.4 mg/mL in culture medium; dose-dependent
Protocol: A dose of 0.006 mg/mL, […] or 0.4 mg/mL (concentration of formulation in culture medium) was employed, but any dose less than 0.006 mg/mL or greater than 0.4 mg/mL or between 0.006 mg/mL and 0.4 mg/mL (concentration of formulation in any diluent) is likewise within the scope of this disclosure. […] Activation of inflammatory cells was measured, and is verified by assays known in the art, by expression of CD69, a protein expressed on activated white blood cells including T lymphocytes, NK cells, monocytes and PMN cells. Activation of inflammatory cells was measured, and is verified by assays known in the art, by expression of CD25, the alpha chain of the low affinity interleukin-2 (IL-2) receptor. […] An increase such as that observed in this Example may be, by way of example and not of limitation, of at least about 1%, or of at least about 2%, or of at least about 5%, or of at least about 10%, or of at least about 20%, or of at least about 30%, or of at least about 40%, or of at least about 50%, or of at least about 60%, or of at least about 70%, or of at least about 80%, or of at least about 90%. A statistically significant decrease is a function of sample size and variability. […]

Compound: CS(C)(=O)=O [MSM, methylsulfonylmethane]
- inflammatory cell activation: decrease

Compound: Hyaluronan [HA]
- inflammatory cell activation: decrease
